# Measured values as given in paper PMC5467316, “Antiviral Activity of Fridericia formosa (Bureau) L. G. Lohmann (Bignoniaceae) Extracts and Constituents” (Journal of Tropical Medicine, 2017).
# Like-named read-outs stand apart in the source and are kept apart here.
# Legend:
# [1] = system: hepatitis B antigen (HBeAg); set-up: method as in PMID 23576173; conditions: cited from earlier work
# [2] = system: hepatitis B surface antigen (HBsAg); set-up: method as in PMID 23576173; conditions: cited from earlier work
# [3] = Cytotoxicity assay (MTT), LLCMK2 cells; format: cell-based; conditions: rhesus monkey
# [4] = Cytotoxicity assay (MTT), Vero cells; format: cell-based; conditions: African green monkey
# HSV-1 = system: HSV-1; set-up: method as in PMID 16350858; conditions: previously reported; read-out: EC50 against HSV-1; cited from earlier work
# [5] = system: human herpes virus 1 (HSV-1); assay: microbe, parasite or virus in culture; format: cell-based; conditions: for EC50: Human alphaherpesvirus 1, 48 h; for antiviral activity against HSV-1 (in words): statement in text
# [6] = system: murine encephalomyocarditis virus (EMCV); format: cell-based; conditions: statement in text
# [7] = set-up: method as in PMID 14977449; conditions: clinical tests; cited from earlier work
# [8] = system: vaccinia virus Western Reserve (VACV-WR); assay: microbe, parasite or virus in culture; format: cell-based; conditions: for EC50: Vaccinia virus Western Reserve, 48 h; for antiviral activity against VACV-WR (in words): statement in text
# [9] = system: dengue virus type 2 (DENV-2); assay: microbe, parasite or virus in culture; format: cell-based; conditions: for antiviral activity against DENV-2 (in words): statement in text; for EC50: Dengue virus, DENV2, 72 h
# Vero cells = system: Vero cells; set-up: method as in PMID 24679044; conditions: cited from earlier work
# Enterovirus 71 = system: Enterovirus 71; set-up: method as in PMID 24679044; conditions: in vitro; read-out: EC50 against Enterovirus 71; cited from earlier work
# HIV-1 replication = system: HIV-1 replication; set-up: method as in PMID 24066838, PMID 21610656; conditions: dose dependent manner; cited from earlier work
# [10] = read-out: HSV-1 EC50 (value in parentheses)
# [11] = read-out: VACV-WR EC50 (value in parentheses), viral titer TCID50/mL 1.0 × 10^6 in 48 h, MTT, concentration in µM
# [12] = read-out: VACV-WR EC50, viral titer TCID50/mL 1.0 × 10^6 in 48 h, MTT
molecule,measurement,setting,value
"COc1cc(O)c2c(=O)c3c(O)ccc(O)c3oc2c1 [1,5,8-trihydroxy-3-methoxyxanthone]",EC50,[1],350 µM
same,EC50,[2],> 980 µM
"Nc1nc2c(ncn2COCCO)c(=O)[nH]1 [Acyclovir, reference compound]",CC50,"[3]; MTT, exposure 48 and 72 h, read-out: LLCMK2 CC50",> 1000 µg/mL
same,CC50,"[4]; MTT, exposure 48 and 72 h, read-out: Vero CC50",> 1000 µg/mL
"O=c1cc(-c2ccccc2)oc2cc(O)cc(O)c12 [Chrysin (4), 5,7-Dihydroxy-2-phenyl-4H-1-benzopyran-4-one]",CC50,[3],> 500 µg/mL
same,EC50,HSV-1,2.5 µM
same,EC50,[5]; read-out: HSV-1 EC50,> 100 µg/mL
same,EC50,[5]; [10],576 µM
same,antiviral activity against HSV-1 (in words),[5],low activity
same,antiviral activity against EMCV (in words),[6],did not inhibit the replication cycle
same,effect on testosterone levels in men (in words),[7],no effect
same,EC50,[8]; [11],486 µM
same,EC50,[8]; [12],> 100 µg/mL
same,antiviral activity against VACV-WR (in words),[8],low activity
same,VACV-WR EC50,"[8]; viral titer TCID50/mL 1.0 × 10^6 in 48 h, MTT",123.5 ± 10.5 µg/mL
same,CC50,[4],> 500 µg/mL
same,antiviral activity against DENV-2 (in words),[9],did not inhibit the replication cycle
euxanthone,CC50,Vero cells,36.6 µM
same,EC50,Enterovirus 71,12.2 µM
"O=c1c2cc(O)ccc2oc2cc(O)c([C@@H]3O[C@H](CO)[C@@H](O)[C@H](O)[C@H]3O)c(O)c12 [2-C-β-D-glucopyranosyl-1,3,7-trihydroxyxanthone]",EC50,[1],40 µM
same,EC50,[2],210 µM
"O=c1c2cc(O)c(O)cc2oc2cc(O)c([C@@H]3O[C@H](CO)[C@@H](O)[C@H](O)[C@H]3O)c(O)c12 [Mangiferin (1), 2-β-D-Glucopyranosyl-1,3,6,7-tetrahydroxy-9H-xanthen-9-one]",CC50,[3],> 500 µg/mL
same,inhibitory activity on HIV-1 replication (in words),HIV-1 replication,good inhibitory activity
same,EC50,[5]; read-out: HSV-1 EC50,268 µg/mL
same,EC50,[5]; [10],635 µM
same,antiviral activity against HSV-1 (in words),[5],low antiviral effect
same,antiviral activity against HSV-1 (in words),[5]; listed as mangiferin,practically inactive
same,antiviral activity against EMCV (in words),[6],low antiviral effect
same,antiviral activity against EMCV (in words),[6]; listed as mangiferin,practically inactive
same,EC50,[8]; [11],432 µM
same,EC50,[8]; [12],183 ± 14.3 µg/mL
same,antiviral activity against VACV-WR (in words),[8],low antiviral effect
same,antiviral activity against VACV-WR (in words),[8]; listed as mangiferin,practically inactive
same,CC50,[4],> 500 µg/mL
same,EC50,[9]; read-out: DENV-2 EC50,266 µg/mL
same,EC50,[9]; read-out: DENV-2 EC50 (value in parentheses),629 µM
same,antiviral activity against DENV-2 (in words),[9],low antiviral effect
same,antiviral activity against DENV-2 (in words),[9]; listed as mangiferin,practically inactive
O=c1c2c(O)cc(O)cc2oc2c(O)ccc(O)c12 [norbellidifolin],EC50,[1],< 620 µM
same,EC50,[2],770 µM
